The experiment concerns MT-4 cells. Kind of experiment: MT-4 proliferation assay. The experiment is classed as cell-based, human. The note with it: Homo sapiens, MT4, 120 h. On the procedure: MT-4 Proliferation Assay:
Compounds were tested in a standardized high-throughput 384-well assay format. Each compound was serially diluted 3-fold in 100% DMSO in polypropylene 384-well plates using a Biomek FX Workstation, and 0.4 μL compound added to an assay plate containing 40 μL RPMI media. Compounds were arranged in a horizontal pattern, with 10 concentrations per compound, and 8 compounds added per plate. Due to low DMSO tolerability, the final DMSO concentration never exceeded 0.5% (v/v). Each assay plate contained 10 μM Puromycin and 0.5% DMSO in RPMI-1640 as positive and negative controls respectively. MT-4 cells (HTLV-1 transformed, human T lymphoblastoid cells, NIH Aids Reagent program) were added in volumes of 35 μL per well and 2,000 cells per well using a Biotek uFlow Workstation (Biotek, Winooski, Vt.), and the plates subsequently incubated for 5 days at 37° C. in an incubator set at 5% CO2 and 90% humidity.
After 5 days, 22 μL Cell Titer Glo (Promega) was added to the assay plates with a Biotek uFlow Workstation. Plates were subsequently placed on a Perkin Elmer Envision Plate Reader for 5 minutes before the luminescence signal was read.

Setting [1] is: Table 1, 5 days, Cell Titer Glo, read-out: MT4 Assay (EC50).

Like-named read-outs stand apart in the source and are kept apart here.

In the case of `Cc1ccc2ncccc2c1-c1cc(-c2c(C)noc2C)cc2[nH]c(C(O)CCO)nc12` (stereo not shown) [Compound 1020-89, 1-(6-(3,5-dimethylisoxazol-4-yl)-4-(6-methylquinolin-5-yl)-1H-benzo[d]imidazol-2-yl)propane-1,3-diol], under setting [1], the EC50 (usually the concentration giving half of the maximal effect) is 104 nM. Still for that read-out and setting: with `CCC1CCC(=O)N1c1cc(-c2c(C)noc2C)cc2[nH]c(C3CC3)nc12` (stereo not shown) [Compound 1020-137, 1-(2-Cyclopropyl-6-(3,5-dimethylisoxazol-4-yl)-1H-benzo[d]imidazol-4-yl)-5-ethylpyrrolidin-2-one] the figure was 113 nM; with `Cc1noc(C)c1-c1cc(S(=O)(=O)NC2CCCC2)c2nc(Cc3ccccc3)[nH]c2c1` [Compound 1020-141, 2-Benzyl-N-cyclopentyl-6-(3,5-dimethylisoxazol-4-yl)-1H-benzo[d]imidazole-4-sulfonamide], 887 nM.

With `Cc1noc(C)c1-c1cc(NC2CCCC2)c2nc(C3CC3)[nH]c2c1` [Compound 1020-50, N-Cyclopentyl-2-cyclopropyl-6-(3,5-dimethylisoxazol-4-yl)-1H-benzo[d]imidazol-4-amine], the EC50 under setting [1] worked out at 353 nM. The same measure, in the same setting: for `Cc1ccnc(C)c1-c1cc(-c2c(C)noc2C)cc2[nH]cnc12` [Compound 1020-84, 4-(4-(2,4-Dimethylpyridin-3-yl)-1H-benzo[d]imidazol-6-yl)-3,5-dimethylisoxazole] the value was 236 nM; for `Cc1n[nH]c(C)c1-c1cc(-c2c(C)noc2C)cc2nc(N)[nH]c12` [Compound 1020-96, 4-(3,5-Dimethyl-1H-pyrazol-4-yl)-6-(3,5-dimethylisoxazol-4-yl)-1H-benzo[d]imidazol-2-amine], 318 nM.

Regarding `Cc1n[nH]c(C)c1-c1cc(-c2c(C)noc2C)cc2[nH]c(NCC3CC3)nc12` [Compound 1020-79, N-(Cyclopropylmethyl)-4-(3,5-dimethyl-1H-pyrazol-4-yl)-6-(3,5-dimethylisoxazol-4-yl)-1H-benzo[d]imidazol-2-amine], the EC50 under setting [1] is 33.8 nM. The same measure, in the same setting: for `Cc1noc(C)c1-c1cc(C(O)(c2ccccc2)c2ccccc2)c2nc(C3CC3)[nH]c2c1` [Compound 1020-102, (2-Cyclopropyl-6-(3,5-dimethylisoxazol-4-yl)-1H-benzo[d]imidazol-4-yl)diphenylmethanol] the value was 49.7 nM; for `Cc1ccnc(C)c1-c1cc(-c2c(C)noc2C)cc2nc(C3CC3)[nH]c12` [Compound 1020-57, 4-(2-Cyclopropyl-7-(2,4-dimethylpyridin-3-yl)-1H-benzo[d]imidazol-5-yl)-3,5-dimethylisoxazole], 13.6 nM. On the same count and under the same terms, for `CC/C=C(\CC)c1cc(-c2c(C)noc2C)cc2nc(C3CC3)[nH]c12` [Compound 1020-28, (E)-4-(2-Cyclopropyl-4-(hex-3-en-3-yl)-1H-benzo[d]imidazol-6-yl)-3,5-dimethylisoxazole] the value was 51.6 nM; for `Cc1noc(C)c1-c1cc(C(C)c2ccc(F)cc2)c2[nH]c(C3CC3)nc2c1` (stereo not shown) [Compound 1020-44, 4-(2-Cyclopropyl-4-(1-(4-fluorophenyl)ethyl)-1H-benzo[d]imidazol-6-yl)-3,5-dimethylisoxazole], 86.1 nM; for `Cc1ccc2ncccc2c1-c1cc(-c2c(C)noc2C)cc2[nH]c(C(F)(F)F)nc12` [Compound 1020-92, 3,5-Dimethyl-4-(4-(6-methylquinolin-5-yl)-2-(trifluoromethyl)-1H-benzo[d]imidazol-6-yl)isoxazole], 73.1 nM. Same read-out and setting: for `Cc1noc(C)c1-c1cc(-c2cccnc2-c2ccccc2)c2nc(C3CC3)[nH]c2c1` [Compound 1020-19, 4-(2-Cyclopropyl-4-(2-phenylpyridin-3-yl)-1H-benzo[d]imidazol-6-yl)-3,5-dimethylisoxazole] the value was 24.4 nM; for `CCC(O)(CC)c1cc(-c2c(C)noc2C)cc2c1nc(C1CC1)n2C` [Compound 1020-132, 3-(2-Cyclopropyl-6-(3,5-dimethylisoxazol-4-yl)-1-methyl-1H-benzo[d]imidazol-4-yl)pentan-3-ol], 544 nM; for `Cc1n[nH]c(C)c1-c1cc(-c2c(C)noc2C)cc2nc(C3CC3(F)F)[nH]c12` (stereo not shown) [Compound 1020-78, 4-(2-(2,2-Difluorocyclopropyl)-7-(3,5-dimethyl-1H-pyrazol-4-yl)-1H-benzo[d]imidazol-5-yl)-3,5-dimethylisoxazole], 25.7 nM.

On to `Cc1nc2cc(-c3c(C)noc3C)cc(-c3c(C)n[nH]c3C)c2[nH]1` [Compound 1020-77, 4-(7-(3,5-Dimethyl-1H-pyrazol-4-yl)-2-methyl-1H-benzo[d]imidazol-5-yl)-3,5-dimethylisoxazole], for which, under setting [1], the concentration for a half-maximal effect (EC50) came to 39.4 nM.

As for `Cc1cnn(C)c1-c1cc(-c2c(C)noc2C)cc2nc(C3CC3)[nH]c12` [Compound 1020-12, 4-(2-Cyclopropyl-7-(1,4-dimethyl-1H-pyrazol-5-yl)-1H-benzo[d]imidazol-5-yl)-3,5-dimethylisoxazole], the EC50 under setting [1] worked out at 21.3 nM.

For `Cc1noc(C)c1-c1cc(S(=O)(=O)NC2CCCC2)c2nc([S+](C)[O-])[nH]c2c1` (stereo not shown) [Compound 1020-5, N-Cyclopentyl-6-(3,5-dimethylisoxazol-4-yl)-2-(methylsulfinyl)-1H-benzo[d]imidazole-4-sulfonamide], where the note is “read-out: MT4 Assay (EC50, nM)”, the EC50 was found to be 329 nM. Turning to `Cc1n[nH]c(C)c1-c1cc(-c2c(C)noc2C)cc2[nH]c(C3CCC3)nc12` [Compound 1020-75, 4-(2-Cyclobutyl-4-(3,5-dimethyl-1H-pyrazol-4-yl)-1H-benzo[d]imidazol-6-yl)-3,5-dimethylisoxazole], the EC50 under setting [1] came out at 18.4 nM. `CCC(CC)c1cc(-c2c(C)noc2C)cc2[nH]c(C3CC3)nc12` [Compound 1020-120, 4-(2-Cyclopropyl-4-(pentan-3-yl)-1H-benzo[d]imidazol-6-yl)-3,5-dimethylisoxazole]: under setting [1], the EC50 came out at 48.8 nM. Regarding `Cc1noc(C)c1-c1cc(/C=C/c2ccccc2)c2[nH]c(C3CC3)nc2c1` [Compound 1020-37, (E)-4-(2-cyclopropyl-4-styryl-1H-benzo[d]imidazol-6-yl)-3,5-dimethylisoxazole], the EC50 under setting [1] turned out to be 518 nM. Regarding `Cc1n[nH]c(C)c1-c1cc(-c2c(C)noc2C)cc2[nH]c(NC3CC3)nc12` [Compound 1020-81, N-Cyclopropyl-4-(3,5-dimethyl-1H-pyrazol-4-yl)-6-(3,5-dimethylisoxazol-4-yl)-1H-benzo[d]imidazol-2-amine], the EC50 under setting [1] came to 7.6 nM. Same read-out and setting: for `Cc1ccc2ncccc2c1-c1cc(-c2c(C)noc2C)cc2nc(C3CC3)n(C)c12` [Compound 1020-74, 4-(2-Cyclopropyl-1-methyl-7-(6-methylquinolin-5-yl)-1H-benzo[d]imidazol-5-yl)-3,5-dimethylisoxazole] the value was 15.3 nM; for `Cc1noc(C)c1-c1cc(S(=O)(=O)NC2CCCC2)c2nc(NCC3CC3)[nH]c2c1` [Compound 1020-1, N-Cyclopentyl-2-(cyclopropylmethylamino)-6-(3,5-dimethylisoxazol-4-yl)-1H-benzo[d]imidazole-4-sulfonamide], 193 nM; for `Cc1noc(C)c1-c1cc(C(O)C2CCCC2)c2nc(C3CC3)[nH]c2c1` (stereo not shown) [Compound 1020-121, Cyclopentyl(2-cyclopropyl-6-(3,5-dimethylisoxazol-4-yl)-1H-benzo[d]imidazol-4-yl)methanol], 42.8 nM. On the same count and under the same terms, with `Cc1noc(C)c1-c1cc(N2C(=O)CCC2C)c2nc(C3CC3)[nH]c2c1` (stereo not shown) [Compound 1020-136, 1-(2-Cyclopropyl-6-(3,5-dimethylisoxazol-4-yl)-1H-benzo[d]imidazol-4-yl)-5-methylpyrrolidin-2-one] the figure was 335 nM; with `CSc1nc2c(S(=O)(=O)NC3CCCC3)cc(-c3c(C)noc3C)cc2[nH]1` [Compound 1020-4, N-Cyclopentyl-6-(3,5-dimethylisoxazol-4-yl)-2-(methylthio)-1H-benzo[d]imidazole-4-sulfonamide], 192 nM; with `COc1nc2c(-c3c(C)ccc4ncccc34)cc(-c3c(C)noc3C)cc2[nH]1` [Compound 1020-90, 4-(2-methoxy-4-(6-methylquinolin-5-yl)-1H-benzo[d]imidazol-6-yl)-3,5-dimethylisoxazole], 25 nM. Still for that read-out and setting: with `Cc1ccc2ncccc2c1-c1cc(-c2c(C)noc2C)cc2[nH]c(-c3cnn(C)c3)nc12` [Compound 1020-88, 3,5-Dimethyl-4-(2-(1-methyl-1H-pyrazol-4-yl)-4-(6-methylquinolin-5-yl)-1H-benzo[d]imidazol-6-yl)isoxazole] the figure was 45.2 nM. For `Cc1noc(C)c1-c1cc(S(=O)(=O)NC2CCCC2)c2nc(NCC(F)(F)F)[nH]c2c1` [Compound 1020-148, N-Cyclopentyl-6-(3,5-dimethylisoxazol-4-yl)-2-(2,2,2-trifluoroethylamino)-1H-benzo[d]imidazole-4-sulfonamide], the EC50 under setting [1] came out at 495 nM. As for `Cc1n[nH]c(C)c1-c1cc(-c2c(C)noc2C)cc2nc(C3CC3)n(C)c12` [Compound 1020-72, 4-(2-cyclopropyl-7-(3,5-dimethyl-1H-pyrazol-4-yl)-1-methyl-1H-benzo[d]imidazol-5-yl)-3,5-dimethylisoxazole], under setting [1], the EC50 turned out to be 6.5 nM.

Values taken from patent US10017501B2, “Benzimidazole derivatives as bromodomain inhibitors” (Gilead Sciences, Inc., priority 2013, dated 2018).
